Laboratory results from article PMC12190436, “5-Ene-2-arylaminothiazol-4(5H)-ones Induce Apoptosis in Breast Cancer Cells” (Cells, 2025).
Where a name gives a salt, the structure may show the parent alone.

Key:
Test in all cases: MTT cell viability assay
Assay type in all cases: cell-based
A172 = settings: Homo sapiens
Description: (§1) All of the tested cell lines were acquired from the American Type Culture Collection (ATCC, Manassas, VA, USA), including human breast cancer cell lines (MCF-7, MDA-MB-231), human gastric cancer cell line (AGS), human colorectal cancer cell lines (HT-29, DLD-1), human glioblastoma cancer cell lines (T98G, A172), mouse astrocyte type I clone (C8-D1A), human normal epithelial breast cells (MCF-10A) and primary dermal fibroblast (HDFa). Such cell lines as AGS, MCF-7, MDA-MB-231, A172, T98G, C8-D1A, and primary dermal fibroblast (HDFa) were cultured in complete medium–DMEM (Corning, Kennebunk, ME, USA). RPMI-1640 (ATCC, Manassas, VA, USA) was used for the DLD-1 cell line, and McCoy’s 5A (PAN-Biotech, Aidenbach, Germany) for the HT-29 cell line. To all utilized media additionally was added 10% fetal bovine serum (FBS) (Eurx, Gdansk, Poland) and 1% penicillin and streptomycin solution (Corning, Kennebunk, ME, USA). MCF-10A cells were incubated in MEGM (Mammary Epithelial Cell Growth Medium) BulletKit supplemented with penicillin/streptomycin cocktail and 5% horse serum. All cells were cultured at 37 °C in an atmosphere with 5% CO₂ in tissue culture dishes (Sarstedt, Numbrecht, Germany). For experiments, cells were washed with phosphate-buffered saline (PBS) (Corning, Kennebunk, ME, USA) followed by the addition of 0.05% trypsin with 0.02% EDTA (Corning, Kennebunk, ME, USA). Scepter 3.0 cell counter (Merck Millipore, Burlington, MA, USA) was applied before each seeding to calculate the number of cells. For the next analyses, cells were reseeded in 6-well plates, 24-well plates, and 96-well plates.
(§2) MTT (3-(4,5-dimethylthiazol-2-yl)-2,5-diphenyltetrazolium bromide) assay method was utilized to analyze compound effects on cell viability. All cell lines were seeded in 96-well plates with 1 × 10^4 cells per well. After 24 h, cells were treated with the tested compounds and reference drug at concentrations of 0.1, 1, 2.5, 5, 10, and 20 µM for 24, 48, or 72 h. Next, a solution of 3-(4,5-dimethyl-2-thiazolyl)-2,5-diphenyl-2H-tetrazolium bromide (Sigma-Aldrich, St. Louis, MO, USA) in PBS with a concentration of 5 mg/mL was prepared. After the incubation with tested compounds, 10 µL of the prepared MTT solution was applied to each well, followed by 2 h of incubation at 37 °C. Next, cells underwent lysis by adding 100 µL of pre-prepared lysing buffer (containing 25 mM HCl, 2% acetic acid, 3% DMF, and 5% SDS, with a pH of 4.7). The absorbance was measured using a UV-VIS Helios Gamma (Unicam/ThermoFisher Scientific Inc., Cleveland, OH, USA) at 570 nm wavelength. The cells incubated with vehicle substance (0.1% DMSO) were taken as controls.
(§3) To investigate the cytotoxic potential of the newly synthesized compounds, a comprehensive assessment was conducted utilizing the MTT assay. This assay was applied on a diverse panel of cell lines, such as human breast cancer cell lines (MCF-7 and MDA-MB-231), human gastric cancer cell line (AGS), human colorectal cancer cell lines (HT-29 and DLD-1), human glioblastoma cancer cell lines (T98G and A172), mouse astrocyte type I clone cells (C8-D1A), primary dermal fibroblast (HDFa), and human normal breast cells (MCF-10A) for 24, 48, and/or 72 h.

AGS = settings: Homo sapiens
Description: as §1, §2, §3

C8-D1A = settings: Mus musculus, normal cells
Description: as §1, §2, §3

DLD-1 = settings: Homo sapiens
Description: as §1, §2, §3

HT-29 = settings: Homo sapiens
Description: as §1, §2, §3

MCF-10A = settings: Homo sapiens, normal cells
Description: as §1, §2, §3

MCF-7 = settings: Homo sapiens
Description: as §1, §2, §3

MDA-MB-231 = settings: Homo sapiens
Description: as §1, §2, §3

[1] = tested on: Primary Dermal Fibroblast (HDFa); settings: Homo sapiens, normal cells
Description: as §1, §2, §3

T98G = settings: Homo sapiens
Description: as §1, §2, §3

Row | Compound | IC50 (AGS; AGS 24 h) [µM] | IC50 (AGS; AGS 48 h) [µM] | IC50 (DLD-1; DLD-1 24 h) [µM] | IC50 (DLD-1; DLD-1 48 h) [µM] | IC50 (HT-29; HT-29 24 h) [µM] | IC50 (HT-29; HT-29 48 h) [µM] | IC50 (MCF-7; MCF7, MCF-7 24 h) [µM] | IC50 (MCF-7; MCF7, MCF-7 48 h) [µM] | IC50 (MCF-7; MCF7, MCF-7 72 h) [µM] | IC50 (MDA-MB-231; MDA-MB-231 24 h) [µM] | IC50 (MDA-MB-231; MDA-MB-231 48 h) [µM] | IC50 (MDA-MB-231; MDA-MB-231 72 h) [µM] | IC50 (A172; A 172, A172 24 h) [µM] | IC50 (A172; A 172, A172 48 h) [µM] | IC50 (MCF-10A; MCF-10A 24 h) [µM] | IC50 ([1]; HDFa 24 h) [µM] | IC50 ([1]; HDFa 48 h) [µM] | IC50 ([1]; HDFa 72 h) [µM] | IC50 (T98G; T98G 24 h) [µM] | IC50 (T98G; T98G 48 h) [µM] | also measured
1 | COc1cc(NC2=NC(=O)C(=Cc3c[nH]c4ccccc34)S2)cc(OC)c1OC [Les-6418, 5-((1H-Indol-3-yl)methylene)-2-((3,4,5-trimethoxyphenyl)amino)thiazol-4(5H)-one] | > 20 | 4.59 ± 0.42 | > 20 | > 20 | > 20 | 7.77 ± 0.91 | > 20 | 4.51 ± 0.04 | 2.24 ± 0.07 | > 20 | > 20 | > 20 | > 20 | > 20 | > 20 | > 20 | > 20 | > 20 | 16.9 ± 1.58 | > 20 | IC50 (C8-D1A; C8-D1A 24 h): 12.9 ± 0.24 µM; IC50 (C8-D1A; C8-D1A 48 h): 7.42 ± 2.33 µM; IC50 (MCF-10A; MCF-10A 48 h): 7.24 ± 0.29 µM; IC50 (MCF-10A; MCF-10A 72 h): 6.66 ± 0.67 µM
2 | COc1cc(NC2=NC(=O)C(=Cc3ccc4cc[nH]c4c3)S2)cc(OC)c1OC [Les-6416, 5-((1H-Indol-6-yl)methylene)-2-((3,4,5-trimethoxyphenyl)amino)thiazol-4(5H)-one] | > 20 | 3.45 ± 0.2 | > 20 | > 20 | > 20 | 6.58 ± 0.37 | 4.7 ± 0.06 | 2.09 ± 0.05 | 1.29 ± 0.01 | > 20 | > 20 | > 20 | > 20 | > 20 | > 20 | > 20 | > 20 | > 20 | > 20 | > 20 | IC50 (C8-D1A; C8-D1A 24 h): 14.3 ± 1.52 µM; IC50 (C8-D1A; C8-D1A 48 h): 7.1 ± 0.73 µM; IC50 (MCF-10A; MCF-10A 48 h): 7.99 ± 0.48 µM; IC50 (MCF-10A; MCF-10A 72 h): 7.25 ± 0.3 µM

More lines, main results first:

Row | IC50 (AGS; AGS 24 h) [µM] | IC50 (AGS; AGS 48 h) [µM] | IC50 (DLD-1; DLD-1 24 h) [µM] | IC50 (DLD-1; DLD-1 48 h) [µM] | IC50 (HT-29; HT-29 24 h) [µM] | IC50 (HT-29; HT-29 48 h) [µM] | IC50 (MCF-7; MCF7, MCF-7 24 h) [µM] | IC50 (MCF-7; MCF7, MCF-7 48 h) [µM] | IC50 (MCF-7; MCF7, MCF-7 72 h) [µM] | IC50 (MDA-MB-231; MDA-MB-231 24 h) [µM] | IC50 (MDA-MB-231; MDA-MB-231 48 h) [µM] | IC50 (MDA-MB-231; MDA-MB-231 72 h) [µM] | Compound | IC50 (A172; A 172, A172 24 h) [µM] | IC50 (A172; A 172, A172 48 h) [µM] | IC50 (MCF-10A; MCF-10A 24 h) [µM] | IC50 ([1]; HDFa 24 h) [µM] | IC50 ([1]; HDFa 48 h) [µM] | IC50 ([1]; HDFa 72 h) [µM] | IC50 (T98G; T98G 24 h) [µM] | IC50 (T98G; T98G 48 h) [µM] | also measured
3 | > 20 | 0.39 ± 0.01 | 4.69 ± 0.48 | 0.6 ± 0.08 | > 20 | 0.3 ± 0.04 | 2.46 ± 0.54 | 0.81 ± 0.01 | 0.26 ± 0.03 | > 20 | 3.91 ± 0.22 | 2.37 ± 0.15 | COc1cccc2c1C(=O)c1c(O)c3c(c(O)c1C2=O)C[C@@](O)(C(=O)CO)C[C@@H]3O[C@H]1C[C@H](N)[C@H](O)[C@H](C)O1 [DOX, Doxorubicin hydrochloride, reference compound] | > 20 | 12.9 ± 0.89 | > 20 | > 20 | > 20 | 0.99 ± 0.03 | > 20 | > 20 | IC50 (C8-D1A; C8-D1A 24 h): > 20 µM; IC50 (C8-D1A; C8-D1A 48 h): 0.25 ± 0.01 µM; IC50 (MCF-10A; MCF-10A 48 h): 0.16 ± 0.01 µM; IC50 (MCF-10A; MCF-10A 72 h): 0.11 ± 0.01 µM
4 | > 20 | 14.5 ± 0.57 | > 20 | > 20 | > 20 | 4.41 ± 0.35 | > 20 | > 20 | > 20 | > 20 | > 20 | > 20 | COc1cc(NC2=NC(=O)C(=Cc3cccs3)S2)cc(OC)c1OC [Les-6423, 5-(Thiophen-2-ylmethylene)-2-((3,4,5-trimethoxyphenyl)amino)thiazol-4(5H)-one] | > 20 | > 20 | – | > 20 | > 20 | > 20 | > 20 | > 20 | –
5 | > 20 | 2.24 ± 0.31 | 18.2 ± 1.24 | 3.86 ± 0.11 | > 20 | 4.58 ± 0.46 | 6.93 ± 0.13 | 7.93 ± 0.1 | 2.43 ± 0.12 | > 20 | > 20 | > 20 | COc1ccc(C=C2SC(Nc3cc(OC)c(OC)c(OC)c3)=NC2=O)cc1 [Les-6381, 5-(4-Methoxybenzylidene)-2-((3,4,5-trimethoxyphenyl)amino)thiazol-4(5H)-one] | > 20 | 8.65 ± 0.52 | 8.37 ± 0.11 | > 20 | > 20 | > 20 | 13.1 ± 0.24 | 4.09 ± 0.1 | IC50 (MCF-10A; MCF-10A 48 h): 0.97 ± 0.04 µM; IC50 (MCF-10A; MCF-10A 72 h): 2.03 ± 0.1 µM
